Patent publication US7468375B2 (Pfizer Inc., priority 2004, dated 2008)
Like-named read-outs stand apart in the source and are kept apart here.

How the values were obtained:
[1] = test system: RF strain of HIV-1 in CEM-SS cells; experiment: HIV-1 cell protection assay (XTT dye reduction); format: cell-based; details: Human immunodeficiency virus 1, CEM-SS, 144 h, HIV-1 RF, CEM-SS cells, XTT dye reduction, six days; read-out: EC50
Method: HIV-1 Cell Protection Assay
The antiviral activities of potential modulator compounds (test compounds) were determined in HIV-1 cell protection assays using the RF strain of HIV-1, CEM-SS cells, and the XTT dye reduction method (Weislow, O. S. et al., J. Natl. Cancer Inst. 81: 577-586 (1989)). Subject cells were infected with HIV-1 RF virus at an moi of 0.025 to 0.819 or mock infected with medium only and added at 2×10^4 cells per well into 96 well plates containing half-log dilutions of test compounds. Six days later, 50 μl of XTT solution (1 mg/ml XTT tetrazolium and […] phenazine methosulfate) were added to the wells and the plates were reincubated for four hours. Viability, as determined by the amount of XTT formazan produced, was quantified spectrophotometrically by absorbance at 450 nm. Data from CPE assays were expressed as the percent of formazan produced in compound-treated cells compared to formazan produced in wells of uninfected, compound-free cells. […] The therapeutic index was calculated by dividing the cytotoxicity (CC50) by the antiviral activity (EC50).

[2] = biological target: T1, Full-length wild type HIV-1 integrase (SF1) (Human immunodeficiency virus type 1 group M subtype B, UniProt P04585); experiment: Integrase strand-transfer scintillation proximity assay; format: biochemical; details: 50 min at 37° C., 246 nM integrase, 50 nM host DNA
T1 construct: made in house; host or cells: E. coli BL21 (DE3)
Source text: Integrase Strand-Transfer Scintillation Proximity Assay Oligonucleotides
Oligonucleotide #1-5′-(biotin)[…]-3′ (SEQ ID NO: 1) and oligonucleotide #2-5′-[…]-3′ (SEQ ID NO: 2), were synthesized by TriLink BioTechnologies, Inc. (San Diego, Calif.). The annealed product represents preprocessed viral ds-DNA derived from the LTR U5 sequence of the viral genome. A ds-DNA control to test for non-specific interactions was made using a 3′ di-deoxy derivative of oligonucleotide #1 annealed to oligonucleotide #2. The CA overhang at the 5′ end of the non-biotinylated strand of the ds-DNA was created artificially by using a complimentary DNA oligonucleotide shortened by 2 base pairs. This configuration eliminates the requisite 3′ processing step of the integrase enzyme prior to the strand-transfer mechanism. Host ds-DNA was prepared as an unlabeled and [^3H]-thymidine labeled product from annealed oligonucleotide #3-5-[…]-3′ (SEQ ID NO: 3), and oligonucleotide #4-5′-[…]-3′ (SEQ ID NO: 4), both synthesized by TriLink BioTechnologies, Inc. (San Diego, Calif.). The annealed product had overhanging 3′ ends of poly(dA). Host DNA was custom radiolabeled by PerkinElmer Life Sciences Inc. (Boston, Mass.) using an enzymatic method with a 12/1 ratio of [methyl-3H]dTTP/cold ds-DNA to yield 5′-blunt end ds-DNA with a specific activity of >900 Ci/mmol. The radiolabeled product was purified using a NENSORB cartridge and stored in stabilized aqueous solution (PerkinElmer). The final radiolabeled product had six [^3H]-thymidine nucleotides at both 5′ ends of the host ds-DNA. Reagents: Streptavidin-coated polyvinyltoluene (PVT) SPA beads were purchased from Amersham Biosciences (Piscataway, N.J.). Cesium chloride was purchased from Shelton Scientific, Inc. (Shelton, Conn.). White, polystyrene, flat-bottom, non-binding surface, 96-well plates were purchased from Corning. All other buffer components were purchased from Sigma (St. Louis, Mo.) unless otherwise indicated.
Enzyme Construction: Full-length wild type HIV-1 integrase (SF1) sequence (amino acids 1-288) was constructed in a pET24a vector (Novagen, Madison, Wis.). The construct was confirmed through DNA sequencing. Enzyme Purification: Full length wild-type HIV Integrase was expressed in E. coli BL21 (DE3) cells and induced with 1 mM isopropyl-1 thio-β-D-galactopyranoside (IPTG) when cells reached an optical density between 0.8-1.0 at 600 nm. Cells were lysed by microfluidation in 50 mM HEPES pH 7.0, 75 mM NaCl, 5 mM DTT, 1 mM 4-(2-Aminoethyl)benzenesulfonylfluoride HCl (AEBSF). Lysate was then centrifuged 20 minutes at 11 k rpm in GSA rotor in Sorvall RC-5B at 4° C. Supernant was discarded and pellet resuspended in 50 mM HEPES pH 7.0, 750 mM NaCl, 5 mM DTT, 1 mM AEBSF and homogenized in a 40 mL Dounce homogenizer for 20 minutes on ice. Homogenate was then centrifuged 20 minutes at 11 k rpm in SS34 rotor in Sorvall RC-5B at 4° C. Supernant was discarded and pellet resuspended in 50 mM HEPES pH 7.0, 750 mM NaCl, 25 mM CHAPS, 5 mM DTT, 1 mM AEBSF. Preparation was then centrifuged 20 minutes at 11 k rpm in SS34 rotor in Sorvall RC-5B at 4° C. Supernant was then diluted 1:1 with 50 mM HEPES pH 7.0, 25 mM CHAPS, 1 mM DTT, 1 mM AEBSF and loaded onto a Q-Sepharose column pre-equilibrated with 50 mM HEPES, pH 7.0, 375 mM NaCl, 25 mM CHAPS, 1 mM DTT, 1 mM AEBSF. The flow through peak was collected and NaCl diluted to 0.1 M with 50 mM HEPES pH 7.0, 25 mM CHAPS, 1 mM DTT, 0.5 mM AEBSF and loaded onto a SP-Sepharose column pre-equilibrated with 50 mM HEPES pH 7.0, 100 mM NaCl, 25 mM CHAPS, 1 mM DTT, 0.5 mM AEBSF. After washing the column with the equilibration buffer, a 100 to 400 mM NaCl gradient was run. The eluted integrase was concentrated and run on a S-300 gel diffusion column using 50 mM HEPES pH 7.0, 500 mM NaCl, 25 mM CHAPS, 1 mM DTT, 0.5 mM AEBSF. The peak from this column was concentrated to 0.76 mg/mL and stored at −70° C. and later used for strand transfer assays. […]

[3] = strand transfer, read-out: IC50

SMILES	EC50 [1] [nM]	IC50 [2, 3] [nM]	IC50 ([2]; IC50, strand transfer) [nM]
CN(Cc1cccnc1)Cc1cn(Cc2ccc(F)cc2F)c2cnc(C(=O)NO)cc12 [Example 8, 1-(2,4-Difluorobenzyl)-N-hydroxy-3-{[methyl(pyridin-3-ylmethyl)amino]methyl}-1H-pyrrolo[2,3-c]pyridine-5-carboxamide]	52	45	
O=C(NO)c1cc2c(CN3CCS(=O)(=O)CC3)cn(Cc3ccc(F)cc3F)c2cn1 [Example 9, 1-(2,4-Difluorobenzyl)-3-[(1,1-dioxidothiomorpholin-4-yl)methyl]-N-hydroxy-1H-pyrrolo[2,3-c]pyridine-5-carboxamide]	7.4	20	
NC(=O)CNCc1cn(Cc2ccc(F)cc2F)c2cnc(C(=O)NO)cc12 [Example 10, 3-{[(2-Amino-2-oxoethyl)amino]methyl}-1-(2,4-difluorobenzyl)-N-hydroxy-1H-pyrrolo[2,3-c]pyridine-5-carboxamide]	18	84	
O=C(NO)c1cc2c(CNc3cccnc3)cn(Cc3ccc(F)cc3F)c2cn1 [Example 11, 1-(2,4-Difluorobenzyl)-N-hydroxy-3-[(pyridin-3-ylamino)methyl]-1 pyrrolo[2,3-c]pyridine-5-carboxamide]	15	37	
O=C(NO)c1cc2c(CNC3CCS(=O)(=O)C3)cn(Cc3ccc(F)cc3F)c2cn1 (stereo not shown) [Example 12, 1-(2,4-Difluorobenzyl)-3-{[(1,1-dioxidotetrahydrothien-3-yl)amino]methyl}-N-hydroxy-1H-pyrrolo[2,3-c]pyridine-5-carboxamide]	19	36	
CN1CCN(Cc2cn(Cc3ccc(F)cc3F)c3cnc(C(=O)N(C)O)cc23)CC1 [Example 13]	220		695
CN1CCN(Cc2cn(Cc3ccc(F)cc3)c3cnc(C(=O)N(C)O)cc23)CC1 [Example 14, 1-(4-Fluorobenzyl)-AN-hydroxy-N-methyl-3-[(4-methylpiperazin-1-yl)methyl]-1H-pyrrolo[2,3-c]pyridine-5-carboxamide]	140		540
O=C1CN(Cc2cn(Cc3ccc(F)cc3)c3cnc(C(=O)NO)cc23)CCN1 [Example 15, 1-(4-Fluorobenzyl)-N-hydroxy-3-[(3-oxopiperazin-1-yl)methyl]-1 pyrrolo[2,3-c]pyridine-5-carboxamide]	11	41	
COCc1c(C(=O)NO)ncc2c1ccn2Cc1ccc(F)cc1F [Example 19, 1-(2,4-Difluorobenzyl)-N-hydroxy-4-(methoxymethyl)-1-H-pyrrolo[2,3-c]pyridine-5-carboxamide]	48	218	
COCc1c(C(=O)NOC)ncc2c1ccn2Cc1ccc(F)cc1F [Example 20]	82		1540
O=C(NO)c1cc2ncn(Cc3ccc(F)cc3)c2cn1 [Example 21, 3-(4-Fluorobenzyl)-N-hydroxy-3H-imidazo[4,5-c]pyridine-6-carboxamide]	84	517	
CONC(=O)c1cc2ncn(Cc3ccc(F)cc3)c2cn1 [Example 22, 3-(4-Fluorobenzyl)-N-methoxy-3H-imidazo[4,5-c]pyridine-6-carboxamide]	190	1300	
CN(O)C(=O)c1cc2ncn(Cc3ccc(F)cc3)c2cn1 [Example 23, 3-(4-Fluorobenzyl)-N-hydroxy-N-methyl-3-H-imidazo[4,5-c]pyridine-6-carboxamide]	780	1300	
O=C(NO)c1cc2ncn(Cc3cccc(F)c3F)c2cn1 [Example 24, 3-(2,3-Difluoro-benzyl)-N-hydroxy-3H-imidazo[4,5-c]pyridine-6-carboxamide]	110	1040	
O=C(NO)c1cc2ncn(CCC3CCCCC3)c2cn1 [Example 25, 3-(2-Cyclohexylethyl)-N-hydroxy-3-H-imidazo[4,5-c]pyridine-6-carboxamide]	230	1720	
O=C(NO)c1cc2ccn(CCC3CCCCC3)c2cn1 [Example 26, 1-(2-Cyclohexylethyl)-N-hydroxy-1H-pyrrolo[2,3-c]pyridine-5-carboxamide]	3700	770	
CC(C)N(O)C(=O)c1cc2ccn(Cc3ccc(F)cc3)c2cn1 [Example 27, 1-(4-Fluorobenzyl)-N-hydroxy-N-isopropyl-1H-pyrrolo[2,3-c]pyridine-5-carboxamide]	3500	8000	
CCCN(O)C(=O)c1cc2ccn(Cc3ccc(F)cc3)c2cn1 [Example 28, 1-(4-Fluorobenzyl)-N-hydroxy-N-propyl-1H-pyrrolo[2,3-c]pyridine-5-carboxamide]	350	628	
CC(C)CN(O)C(=O)c1cc2ccn(Cc3ccc(F)cc3)c2cn1 [Example 29, 1-(4-Fluorobenzyl)-N-hydroxy-N-isobutyl-1H-pyrrolo[2,3-c]pyridine-5-carboxamide]	1400	1700	
O=C(c1cc2ccn(Cc3ccc(F)cc3)c2cn1)N(O)CCCO [Example 30, 1-(4-Fluorobenzyl)-N-hydroxy-N-(3-hydroxypropyl)-1H-pyrrolo[2,3-c]pyridine-5-carboxamide]	300	804	
O=C(NO)c1cc2c(cn1)c(C(O)c1ccc(F)cc1)cn2Cc1ccc(F)cc1 (stereo not shown) [Example 31, 1-(4-Fluorobenzyl)-3-[(4-fluorophenyl)(hydroxy)methyl]-N-hydroxy-1H pyrrolo[3,2-c]pyridine-6-carboxamide]	14	186	
O=C(NO)c1cc2c(cn1)c(Cc1ccc(F)cc1)cn2Cc1ccc(F)cc1 [Example 32, 1,3-Bis(4-fluorobenzyl)-N-hydroxy-1H-pyrrolo[3,2-c]pyridine-6-carboxamide]	25	215	
CC1C(=O)NCCN1Cc1cn(Cc2ccc(F)cc2)c2cnc(C(=O)N(C)O)cc12 (stereo not shown) [Example 33, 1-(4-Fluorobenzyl)-N-hydroxy-N-methyl-3-[(2-methyl-3-oxopiperazin-1-yl)methyl]-1H-pyrrolo[2,3-c]pyridine-5-carboxamide]	210	463	
